In US20250034136A1 (Nimbus Wadjet, Inc., priority 2023, published 2025):
Where two headings read alike, the source gives them in different places.

Legend:
[1] = test system: p21 induction in HCT116 cells; experiment: p21 induction in HCT116 cells; type: cell-based; details: Homo sapiens, HCT-116, 24 h, read-out: P21_EC50
Procedure, shortened: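 EC50 from non-linear curve fit of p21 immunofluorescence (800 nm), with GAPDH (700 nm) read alongside. DMSO and a reference WRN inhibitor served as low and high controls. Cells (2,000/well) got 11 compound concentrations in duplicate for 24 h at 37 °C.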

[2] = biological target: WRN (BV08), human Werner helicase (Uniprot Q14191, amino acids 517-1235 with L1074F point mutation) (Homo sapiens (Human), UniProt Q14191, L1074F); experiment: WRN (BV08) ADP-Glo assay; type: biochemical; details: class symbols A-E, read-out: ADP-Glo_hWRN_IC50
Chain of WRN (BV08), human Werner helicase (Uniprot Q14191, amino acids 517-1235 with L1074F point mutation) (Q14191 other isoform, or with tags, fused parts or gaps L1074F (already in the parent)): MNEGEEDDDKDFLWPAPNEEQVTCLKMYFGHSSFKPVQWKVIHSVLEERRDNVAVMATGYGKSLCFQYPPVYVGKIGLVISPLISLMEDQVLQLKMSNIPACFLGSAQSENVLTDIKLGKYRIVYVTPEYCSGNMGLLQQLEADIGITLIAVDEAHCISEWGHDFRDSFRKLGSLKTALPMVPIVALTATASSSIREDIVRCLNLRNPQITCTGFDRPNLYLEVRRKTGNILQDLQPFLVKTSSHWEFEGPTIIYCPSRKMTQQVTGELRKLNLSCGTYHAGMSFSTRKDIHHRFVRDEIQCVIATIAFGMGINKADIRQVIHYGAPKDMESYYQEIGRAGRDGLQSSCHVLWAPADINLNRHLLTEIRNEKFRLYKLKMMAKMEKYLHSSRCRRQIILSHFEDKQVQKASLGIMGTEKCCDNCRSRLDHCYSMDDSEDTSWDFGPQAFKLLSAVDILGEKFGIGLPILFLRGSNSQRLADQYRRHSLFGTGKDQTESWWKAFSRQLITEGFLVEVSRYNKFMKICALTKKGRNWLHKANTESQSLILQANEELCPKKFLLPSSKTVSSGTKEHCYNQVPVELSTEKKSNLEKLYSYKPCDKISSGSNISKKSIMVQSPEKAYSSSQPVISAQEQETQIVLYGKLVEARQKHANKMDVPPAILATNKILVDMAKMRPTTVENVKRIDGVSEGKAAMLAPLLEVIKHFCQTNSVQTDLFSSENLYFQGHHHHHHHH

[3] = HCT116 cells, 24 h compound incubation

Row | EC50 [1, 3] [nM] | IC50 [2] [nM] | SMILES | EC50 [1] [nM]
1 | > 5000 | 100 to 500 | CCc1c(N2CCN(C(=O)c3ncnc(C)c3O)CC2)c(=O)c2nc(N3CCNCC3)cnc2n1CC(=O)Nc1ccc(C(F)(F)F)cc1Cl [I-89, N-(2-chloro-4-(trifluoromethyl)phenyl)-2-(6-ethyl-7-(4-(5-hydroxy-6-methylpyrimidine-4-carbonyl)piperazin-1-yl)-8-oxo-2-(piperazin-1-yl)pyrido[2,3-b]pyrazin-5(8H)-yl)acetamide] | –
2 | > 5000 | 5 to 50 | CCc1c(N2CCN(C(=O)c3ncnc(C)c3O)CC2)c(=O)c2nc(C3=CCOC3)cnc2n1CC(=O)Nc1ccc(C(F)(F)F)cc1Cl [I-90, N-(2-chloro-4-(trifluoromethyl)phenyl)-2-(2-(2,5-dihydrofuran-3-yl)-6-ethyl-7-(4-(5-hydroxy-6-methylpyrimidine-4-carbonyl)piperazin-1-yl)-8-oxopyrido[2,3-b]pyrazin-5(8H)-yl)acetamide] | –
3 | > 5000 | 5 to 50 | CCc1c(N2CCN(C(=O)c3ncnc(C)c3O)CC2)c(=O)c2nc(N3CCn4nccc43)cnc2n1CC(=O)Nc1ccc(C(F)(F)F)cc1Cl [I-91, N-(2-chloro-4-(trifluoromethyl)phenyl)-2-(2-(2,3-dihydro-1H-imidazo[1,2-b]pyrazol-1-yl)-6-ethyl-7-(4-(5-hydroxy-6-methylpyrimidine-4-carbonyl)piperazin-1-yl)-8-oxopyrido[2,3-b]pyrazin-5(8H)-yl)acetamide] | –
4 | 500 to 2000 | 5 to 50 | CCc1c(N2CCN(C(=O)c3ncnc(C)c3O)CC2)c(=O)c2nc(N(C)[C@H]3C[C@H](OC)C3)cnc2n1CC(=O)Nc1ccc(C(F)(F)F)cc1Cl [I-92, N-(2-chloro-4-(trifluoromethyl)phenyl)-2-(6-ethyl-7-(4-(5-hydroxy-6-methylpyrimidine-4-carbonyl)piperazin-1-yl)-2-(((1r,3r)-3-methoxycyclobutyl)(methyl)amino)-8-oxopyrido[2,3-b]pyrazin-5(8H)-yl)acetamide] | –
5 | 500 to 2000 | 5 to 50 | CCc1c(N2CCN(C(=O)c3ncnc(C)c3O)CC2)c(=O)c2nc(N3CCC4CC43)cnc2n1CC(=O)Nc1ccc(C(F)(F)F)cc1Cl (centres unmarked) [I-93, 2-(2-(2-azabicyclo[3.1.0]hexan-2-yl)-6-ethyl-7-(4-(5-hydroxy-6-methylpyrimidine-4-carbonyl)piperazin-1-yl)-8-oxopyrido[2,3-b]pyrazin-5(8H)-yl)-N-(2-chloro-4-(trifluoromethyl)phenyl)acetamide] | –
6 | > 5000 | 5 to 50 | CCc1c(N2CCN(C(=O)c3ncnc(C)c3O)CC2)c(=O)c2nc(-c3cn[nH]c3)cnc2n1CC(=O)Nc1ccc(C(F)(F)F)cc1Cl [I-94, N-(2-chloro-4-(trifluoromethyl)phenyl)-2-(6-ethyl-7-(4-(5-hydroxy-6-methylpyrimidine-4-carbonyl)piperazin-1-yl)-8-oxo-2-(1H-pyrazol-4-yl)pyrido[2,3-b]pyrazin-5(8H)-yl)acetamide] | –
7 | < 500 | 5 to 50 | CCc1c(N2CCN(C(=O)c3ncnc(C)c3O)C[C@@H]2C)c(=O)c2nc(N(C)C)cnc2n1CC(=O)Nc1ccc(C(F)(F)F)cc1Cl [I-98, (S)—N-(2-chloro-4-(trifluoromethyl)phenyl)-2-(2-(dimethylamino)-6-ethyl-7-(4-(5-hydroxy-6-methylpyrimidine-4-carbonyl)-2-methylpiperazin-1-yl)-8-oxopyrido[2,3-b]pyrazin-5(8H)-yl)acetamide] | –
8 | > 5000 | 5 to 50 | CCc1c(N2CCN(C(=O)c3ncnc(C)c3O)C[C@H]2C)c(=O)c2nc(N(C)C)cnc2n1CC(=O)Nc1ccc(C(F)(F)F)cc1Cl [I-99, (R)—N-(2-chloro-4-(trifluoromethyl)phenyl)-2-(2-(dimethylamino)-6-ethyl-7-(4-(5-hydroxy-6-methylpyrimidine-4-carbonyl)-2-methylpiperazin-1-yl)-8-oxopyrido[2,3-b]pyrazin-5(8H)-yl)acetamide] | –
9 | < 500 | ≤ 5 | CCc1c(N2CCN(C(=O)c3ncnc(C)c3O)[C@H]3CC[C@@H]32)c(=O)c2nc(C3CC3)cnc2n1CC(=O)Nc1ccc(C(F)(F)F)cc1Cl [I-100, N-(2-chloro-4-(trifluoromethyl)phenyl)-2-(2-cyclopropyl-6-ethyl-7-((1S,6S)-5-(5-hydroxy-6-methylpyrimidine-4-carbonyl)-2,5-diazabicyclo[4.2.0]octan-2-yl)-8-oxopyrido[2,3-b]pyrazin-5(8H)-yl)acetamide] | –
10 | < 500 | ≤ 5 | CCc1c(N2CCN(C(=O)c3ncnc(C)c3O)[C@H]3CC[C@@H]32)c(=O)c2nc(OC3CC3)cnc2n1CC(=O)Nc1ccc(C(F)(F)F)cc1Cl [I-102, N-(2-chloro-4-(trifluoromethyl)phenyl)-2-(2-cyclopropoxy-6-ethyl-7-((1S,6S)-5-(5-hydroxy-6-methylpyrimidine-4-carbonyl)-2,5-diazabicyclo[4.2.0]octan-2-yl)-8-oxopyrido[2,3-b]pyrazin-5(8H)-yl)acetamide] | –
11 | < 500 | 5 to 50 | CCc1c(N2CCN(C(=O)c3ncnc(C)c3O)[C@H]3CC[C@@H]32)c(=O)c2nc(N3CCCC3)cnc2n1CC(=O)Nc1ccc(C(F)(F)F)cc1Cl [I-105, N-(2-chloro-4-(trifluoromethyl)phenyl)-2-(6-ethyl-7-((1S,6S)-5-(5-hydroxy-6-methylpyrimidine-4-carbonyl)-2,5-diazabicyclo[4.2.0]octan-2-yl)-8-oxo-2-(pyrrolidin-1-yl)pyrido[2,3-b]pyrazin-5(8H)-yl)acetamide] | –

The next lines start with the compound.

Row | SMILES | EC50 [1, 3] [nM] | IC50 [2] [nM] | EC50 [1] [nM]
12 | CCc1c(N2CCN(C(=O)c3ncnc(C)c3O)CC2)c(=O)c2nc3nc(C)sc3nc2n1CC(=O)Nc1ccc(C(F)(F)F)cc1Cl [I-95, N-(2-chloro-4-(trifluoromethyl)phenyl)-2-(6-ethyl-7-(4-(5-hydroxy-6-methylpyrimidine-4-carbonyl)piperazin-1-yl)-2-methyl-8-oxopyrido[2,3-b]thiazolo[4,5-e]pyrazin-5(8H)-yl)acetamide] | – | 5 to 50 | 500 to 2000
13 | CCc1c(N2CCN(C(=O)c3ncnc(C)c3O)[C@H]3CC[C@@H]32)c(=O)c2nc(N(C)C)cnc2n1CC(=O)Nc1ccc(C(F)(F)F)cc1C [I-103, 2-(2-(dimethylamino)-6-ethyl-7-((1S,6S)-5-(5-hydroxy-6-methylpyrimidine-4-carbonyl)-2,5-diazabicyclo[4.2.0]octan-2-yl)-8-oxopyrido[2,3-b]pyrazin-5(8H)-yl)-N-(2-methyl-4-(trifluoromethyl)phenyl)acetamide] | < 500 | 5 to 50 | –
14 | CCc1c(N2CCN(C(=O)c3ncnc(C)c3O)[C@H]3CC[C@@H]32)c(=O)c2nc(N(C)C)cnc2n1CC(=O)Nc1ccc(C(F)(F)F)cc1 [I-104, 2-(2-(dimethylamino)-6-ethyl-7-((1S,6S)-5-(5-hydroxy-6-methylpyrimidine-4-carbonyl)-2,5-diazabicyclo[4.2.0]octan-2-yl)-8-oxopyrido[2,3-b]pyrazin-5(8H)-yl)-N-(4-(trifluoromethyl)phenyl)acetamide] | < 500 | 5 to 50 | –
15 | CCc1c(N2CCN(C(=O)c3ncnc(C)c3O)[C@H]3CC[C@@H]32)c(=O)c2nc(N(C)C)c(C)nc2n1CC(=O)Nc1ccc(C(F)(F)F)cc1Cl [I-107, N-(2-chloro-4-(trifluoromethyl)phenyl)-2-(2-(dimethylamino)-6-ethyl-7-((1S,6S)-5-(5-hydroxy-6-methylpyrimidine-4-carbonyl)-2,5-diazabicyclo[4.2.0]octan-2-yl)-3-methyl-8-oxopyrido[2,3-b]pyrazin-5(8H)-yl)acetamide] | < 500 | ≤ 5 | –
16 | CCc1c(N2CCN(C(=O)c3ncnc(C)c3O)CC2)c(=O)c2nc(N(C)C)cnc2n1CC(=O)NC12CC(C(F)(F)F)(C1)C2 [I-108, 2-(2-(dimethylamino)-6-ethyl-7-(4-(5-hydroxy-6-methylpyrimidine-4-carbonyl)piperazin-1-yl)-8-oxopyrido[2,3-b]pyrazin-5(8H)-yl)-N-(3-(trifluoromethyl)bicyclo[1.1.1]pentan-1-yl)acetamide] | > 5000 | 100 to 500 | –
17 | CCc1c(N2CCN(C(=O)c3ncnc(C)c3O)CC2)c(=O)c2nc(N(C)C)c(F)cc2n1CC(=O)Nc1ccc(C(F)(F)F)cc1Cl [I-109, N-(2-chloro-4-(trifluoromethyl)phenyl)-2-(6-(dimethylamino)-2-ethyl-7-fluoro-3-(4-(5-hydroxy-6-methylpyrimidine-4-carbonyl)piperazin-1-yl)-4-oxo-1,5-naphthyridin-1(4H)-yl)acetamide] | – | 5 to 50 | 500 to 2000
18 | CCc1c(N2CCN(C(=O)c3ncnc(C)c3O)[C@H]3CC[C@@H]32)c(=O)c2nc(N(C)C)cnc2n1CC(=O)NC12CC(C(F)(F)F)(C1)C2 [I-110, 2-(2-(dimethylamino)-6-ethyl-7-((1S,6S)-5-(5-hydroxy-6-methylpyrimidine-4-carbonyl)-2,5-diazabicyclo[4.2.0]octan-2-yl)-8-oxopyrido[2,3-b]pyrazin-5(8H)-yl)-N-(3-(trifluoromethyl)bicyclo[1.1.1]pentan-1-yl)acetamide] | > 5000 | 100 to 500 | –
19 | CCc1c(N2CCN(C(=O)c3ncnc(C)c3O)[C@H]3CC[C@@H]32)c(=O)c2nc(C=C(C)C)nnc2n1CC(=O)Nc1ccc(C(F)(F)F)cc1Cl [I-111, N-(2-chloro-4-(trifluoromethyl)phenyl)-2-(7-ethyl-6-((1S,6S)-5-(5-hydroxy-6-methylpyrimidine-4-carbonyl)-2,5-diazabicyclo[4.2.0]octan-2-yl)-3-(2-methylprop-1-en-1-yl)-5-oxopyrido[3,2-e] [1,2,4]triazin-8(5H)-yl)acetamide] | < 500 | ≤ 5 | –
